Experimental data from ChEMBL document CHEMBL5370591, “A Potent and Narrow-Spectrum Antibacterial against Clostridioides difficile Infection” (J Med Chem, 2023).
Converted amounts (≈) assume the structure as drawn.

Experiments:
Bifidobacterium longum = assay: Antibacterial activity against Bifidobacterium longum HM-846 assessed as inhibition of bacterial growth by broth microdilution method; assay type: functional
[1] = tested on: Limosilactobacillus reuteri; assay: Antibacterial activity against Lactobacillus reuteri HM-102 assessed as inhibition of bacterial growth by broth microdilution method; assay type: functional
THP-1 = assay: Cytotoxicity against human THP-1 cells assessed as increase in LDH release incubate for 24 hrs by trypan-blue staining based analysis; assay type: functional, cell-based; details: THP-1, 24 h
Klebsiella pneumoniae = assay: Antibacterial activity against Klebsiella pneumoniae ATCC700603 assessed as inhibition of bacterial growth by broth microdilution method; assay type: functional
Staphylococcus aureus [2] = assay: Antibacterial activity against Staphylococcus aureus ATCC 27660 assessed as inhibition of bacterial growth by broth microdilution method; assay type: functional
Bacillus cereus = assay: Antibacterial activity against Bacillus cereus ATCC 13061 assessed as inhibition of bacterial growth by broth microdilution method; assay type: functional
Klebsiella aerogenes = assay: Antibacterial activity against Klebsiella aerogenes ATCC35029 assessed as inhibition of bacterial growth by broth microdilution method; assay type: functional
Clostridioides difficile [3] = assay: Antibacterial activity against Clostridium difficile 26675 assessed as inhibition of bacterial growth by broth microdilution method; assay type: functional
Clostridioides difficile [4] = assay: Antibacterial activity against Clostridium difficile NR49292 assessed as inhibition of bacterial growth by broth microdilution method; assay type: functional
[5] = Selectivity ratio of IC50 for human THP-1 cells to MIC for Clostridium difficile ATCC 43255; assay type: toxicity
Enterococcus faecalis [6] = assay: Antibacterial activity against vancomycin resistant Enterococcus faecalis 99 assessed as inhibition of bacterial growth by broth microdilution method; assay type: functional
Staphylococcus aureus [7] = assay: Antibacterial activity against Staphylococcus aureus NRS119 assessed as inhibition of bacterial growth by broth microdilution method; assay type: functional
Staphylococcus aureus [8] = assay: Antibacterial activity against Staphylococcus aureus NRS120 assessed as inhibition of bacterial growth by broth microdilution method; assay type: functional
Enterococcus faecium [9] = assay: Antibacterial activity against vancomycin resistant Enterococcus faecium 106 assessed as inhibition of bacterial growth by broth microdilution method; assay type: functional
Enterococcus faecalis [10] = assay: Antibacterial activity against Enterococcus faecalis ATCC 29212 assessed as inhibition of bacterial growth by broth microdilution method; assay type: functional
Veillonella = assay: Antibacterial activity against Veillonella HM-49 assessed as inhibition of bacterial growth by broth microdilution method; assay type: functional
Clostridioides difficile [11] = assay: Antibacterial activity against Clostridium difficile ATCC 43255 assessed as inhibition of bacterial growth by broth microdilution method; assay type: functional
Clostridioides difficile [12] = assay: Antibacterial activity against Clostridium difficile NR49305 assessed as inhibition of bacterial growth by broth microdilution method; assay type: functional
Clostridioides difficile [13] = assay: Antibacterial activity against Clostridium difficile BAA-1803 assessed as inhibition of bacterial growth by broth microdilution method; assay type: functional
Escherichia coli = assay: Antibacterial activity against Escherichia coli ATCC25922 assessed as inhibition of bacterial growth by broth microdilution method; assay type: functional
Clostridioides difficile [14] = assay: Antibacterial activity against Clostridium difficile 24531 assessed as inhibition of bacterial growth by broth microdilution method; assay type: functional
Enterococcus faecium [15] = assay: Antibacterial activity against vancomycin susceptible Enterococcus faecium119-39A assessed as inhibition of bacterial growth by broth microdilution method; assay type: functional; details: 119-39A
Streptococcus pyogenes = assay: Antibacterial activity against Streptococcus pyogenes ATCC 49399 assessed as inhibition of bacterial growth by broth microdilution method; assay type: functional
Eubacterium sp. = assay: Antibacterial activity against Eubacterium sp. HM-178 assessed as inhibition of bacterial growth by broth microdilution method; assay type: functional
Streptococcus oralis = assay: Antibacterial activity against Streptococcus oralis ATCC 9811 assessed as inhibition of bacterial growth by broth microdilution method; assay type: functional
Clostridioides difficile [16] = assay: Antibacterial activity against Clostridium difficile NR49310 assessed as inhibition of bacterial growth by broth microdilution method; assay type: functional
[17] = tested on: Staphylococcus haemolyticus; assay: Antibacterial activity against Staphylococcus haemolyticus ATCC 29970 assessed as inhibition of bacterial growth by broth microdilution method; assay type: functional
Acinetobacter baumannii = assay: Antibacterial activity against Acinetobacter baumannii ATCC17961 assessed as inhibition of bacterial growth by broth microdilution method; assay type: functional
Clostridioides difficile [18] = assay: Antibacterial activity against Clostridium difficile NR49302 assessed as inhibition of bacterial growth by broth microdilution method; assay type: functional
Staphylococcus aureus [19] = assay: Antibacterial activity against vancomycin-resistant Staphylococcus aureus clinical isolate 1 assessed as inhibition of bacterial growth by broth microdilution method; assay type: functional
Bacteroides fragilis = assay: Antibacterial activity against Bacteroides fragilis HM-709 assessed as inhibition of bacterial growth by broth microdilution method; assay type: functional
Fusobacterium nucleatum = assay: Antibacterial activity against Fusobacterium nucleatum HM-992 assessed as inhibition of bacterial growth by broth microdilution method; assay type: functional
Pseudomonas aeruginosa = assay: Antibacterial activity against Pseudomonas aeruginosa ATCC27853 assessed as inhibition of bacterial growth by broth microdilution method; assay type: functional
Lactobacillus gasseri = assay: Antibacterial activity against Lactobacillus gasseri HM-644 assessed as inhibition of bacterial growth by broth microdilution method; assay type: functional
Staphylococcus aureus [20] = assay: Antibacterial activity against vancomycin-resistant Staphylococcus aureus clinical isolate 2 assessed as inhibition of bacterial growth by broth microdilution method; assay type: functional
Corynebacterium sp. = assay: Antibacterial activity against Corynebacterium sp. HM-784 assessed as inhibition of bacterial growth by broth microdilution method; assay type: functional
Enterococcus faecalis [21] = assay: Antibacterial activity against vancomycin susceptible Enterococcus faecalis 201 assessed as inhibition of bacterial growth by broth microdilution method; assay type: functional
Clostridioides difficile [22] = assay: Antibacterial activity against Clostridium difficile NR49294 assessed as inhibition of bacterial growth by broth microdilution method; assay type: functional
Clostridioides difficile [23] = assay: Antibacterial activity against Clostridium difficile BAA-1870 assessed as inhibition of bacterial growth by broth microdilution method; assay type: functional
Bacillus licheniformis = assay: Antibacterial activity against Bacillus licheniformis ATCC 12759 assessed as inhibition of bacterial growth by broth microdilution method; assay type: functional
Staphylococcus aureus [24] = assay: Antibacterial activity against Staphylococcus aureus ATCC 29213 assessed as inhibition of bacterial growth by broth microdilution method; assay type: functional
[25] = tested on: Staphylococcus epidermidis; assay: Antibacterial activity against Staphylococcus epidermidis ATCC 35547 assessed as inhibition of bacterial growth by broth microdilution method; assay type: functional
Enterococcus faecium [26] = assay: Antibacterial activity against Enterococcus faecium NCTC 7171 assessed as inhibition of bacterial growth by broth microdilution method; assay type: functional
Staphylococcus aureus [27] = assay: Antibacterial activity against Staphylococcus aureus NRS100 assessed as inhibition of bacterial growth by broth microdilution method; assay type: functional
Clostridioides difficile [28] = assay: Antibacterial activity against Clostridium difficile NR49318 assessed as inhibition of bacterial growth by broth microdilution method; assay type: functional

Molecule FC(F)(F)c1ccc(Oc2ccc(-c3noc(-c4ccc5[nH]ccc5c4)n3)cc2)cc1 has an MIC (Bifidobacterium longum) of 0.25 µg/mL (≈ 0.593 µM), an MIC [1] greater than 128 µg/mL and an IC50 (THP-1) of 69 µg/mL (≈ 164 µM). For the same molecule, the MIC (Klebsiella pneumoniae) was greater than 128 µg/mL, the MIC (Staphylococcus aureus [2]) was 4 µg/mL (≈ 9.49 µM) and the MIC (Bacillus cereus) was 16 µg/mL (≈ 38 µM). It also gave an MIC (Klebsiella aerogenes) greater than 128 µg/mL, an MIC (Clostridioides difficile [3]) of 4 µg/mL (≈ 9.49 µM) and an MIC (Clostridioides difficile [4]) of 2 µg/mL (≈ 4.75 µM). For the same molecule, the selectivity ratio [5] was 17, the MIC (Enterococcus faecalis [6]) was 4 µg/mL (≈ 9.49 µM) and the MIC (Staphylococcus aureus [7]) was 2 µg/mL (≈ 4.75 µM). The MIC (Staphylococcus aureus [8]) was 2 µg/mL (≈ 4.75 µM), the MIC (Enterococcus faecium [9]) was 2 µg/mL (≈ 4.75 µM) and the MIC (Enterococcus faecalis [10]) was 8 µg/mL (≈ 19 µM). For the same molecule, the MIC (Veillonella) was greater than 128 µg/mL, the MIC (Clostridioides difficile [11]) was 2 µg/mL (≈ 4.75 µM) and the MIC (Clostridioides difficile [12]) was 4 µg/mL (≈ 9.49 µM). For the same molecule, the MIC (Clostridioides difficile [13]) was 2 µg/mL (≈ 4.75 µM), the MIC (Escherichia coli) was greater than 128 µg/mL and the MIC (Clostridioides difficile [14]) was 4 µg/mL (≈ 9.49 µM). For the same molecule, the MIC (Enterococcus faecium [15]) was 1 µg/mL (≈ 2.37 µM), the MIC (Streptococcus pyogenes) was 64 µg/mL (≈ 152 µM) and the MIC (Eubacterium sp.) was 2 µg/mL (≈ 4.75 µM). The MIC (Streptococcus oralis) was 128 µg/mL (≈ 304 µM), the MIC (Clostridioides difficile [16]) was 2 µg/mL (≈ 4.75 µM) and the MIC [17] was 8 µg/mL (≈ 19 µM). For the same molecule, the MIC (Acinetobacter baumannii) was greater than 128 µg/mL, the MIC (Clostridioides difficile [18]) was 2 µg/mL (≈ 4.75 µM) and the MIC (Staphylococcus aureus [19]) was 2 µg/mL (≈ 4.75 µM). It also gave an MIC (Bacteroides fragilis) of 4 µg/mL (≈ 9.49 µM), an MIC (Fusobacterium nucleatum) of 1 µg/mL (≈ 2.37 µM) and an MIC (Pseudomonas aeruginosa) greater than 128 µg/mL. For the same molecule, the MIC (Lactobacillus gasseri) was greater than 128 µg/mL, the MIC (Staphylococcus aureus [20]) was 2 µg/mL (≈ 4.75 µM) and the MIC (Corynebacterium sp.) was 2 µg/mL (≈ 4.75 µM). The MIC (Enterococcus faecalis [21]) was 4 µg/mL (≈ 9.49 µM), the MIC (Clostridioides difficile [22]) was 1 µg/mL (≈ 2.37 µM) and the MIC (Clostridioides difficile [23]) was 4 µg/mL (≈ 9.49 µM). It also gave an MIC (Bacillus licheniformis) of 8 µg/mL (≈ 19 µM), an MIC (Staphylococcus aureus [24]) of 4 µg/mL (≈ 9.49 µM) and an MIC [25] of 2 µg/mL (≈ 4.75 µM). It also gave an MIC (Enterococcus faecium [26]) of 2 µg/mL (≈ 4.75 µM), an MIC (Staphylococcus aureus [27]) of 2 µg/mL (≈ 4.75 µM) and an MIC (Clostridioides difficile [28]) of 2 µg/mL (≈ 4.75 µM).
